Literature values in patent publication US7271001B2, “Method for mitochondrial targeting of p53” (The Research Foundation of State University of New York, priority 2004, dated 2007).

What was measured:
[1] = tested on: tumor-derived p53 mutant proteins; settings: cell-based assays in vitro
[2] = tested on: tumor xenografts; settings: tumor xenografts in nude mice

Row | Compound | restoration of transcriptional p53 function [1] | tumor growth [2]
1 | COc1ccc(/C=C/c2nc(NCCCN(C)C)c3ccccc3n2)cc1 [CP-31398] | can restore transcriptional p53 function | slow tumor growth
2 | O=C1C2CCN(CC2)C1(CO)CO [PRIMA-1] | can restore transcriptional p53 function | slow tumor growth
